This note sets out measurements from PubChem BioAssay (NCI).

Some test systems named below: 786-0 renal; A498 renal; BT-549 breast; CAKI-1 renal; COLO 205 colon; HOP-92 NSCLC; HS 578T breast; K-562 leukemia; M14 melanoma; MOLT-4 leukemia; NCI-H460 lung; NCI/ADR-RES ovarian; SF-268 CNS; SK-MEL-28 melanoma; SK-MEL-5 melanoma; SK-OV-3 ovarian; SNB-75 CNS; U251 CNS; UACC-257 melanoma; NCI-H226 lung.
What all share (assay): NCI-60 cell line screen, 48 h

Each structure is given as a SMILES string.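 Growth conditions: 96-well plates. Treatment: test compound, 48 hours, 5 concentrations. Analysis: linear interpolation between bracketing concentrations; unreached endpoints set to highest concentration. TGI marks complete inhibition of growth.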

As for `O=C1Nc2ccccc2/C1=C\c1c(Cl)nc2n1CCS2`, the TGI in the assay with 786-0 renal was 60.6 µM; in the assay on A498 renal it was 61.4 µM; with BT-549 breast, 52.8 µM; in the assay on CAKI-1 renal, more than 100 µM; with COLO 205 colon, 38.5 µM; with HOP-92 NSCLC, more than 100 µM. The TGI with HS 578T breast was 40.1 µM; in the assay with K-562 leukemia, more than 100 µM; in the assay with M14 melanoma, more than 100 µM; in the assay with MOLT-4 leukemia it was 97.9 µM; with NCI-H460 lung it was 45.3 µM; in the assay with NCI/ADR-RES ovarian, 67.5 µM. Moreover, the TGI in the assay on SF-268 CNS was 94.8 µM; in the assay on SK-MEL-28 melanoma it was more than 100 µM; in the assay on SK-MEL-5 melanoma, 29.4 µM; in the assay with SK-OV-3 ovarian it was 74.9 µM; with SNB-75 CNS, 56.8 µM; in the assay with U251 CNS, 75.6 µM. Moreover, the TGI in the assay on UACC-257 melanoma stood at 30.6 µM.

On to `COc1ccc(-c2nc3cc(C(F)(F)F)ccc3n2CC2CCCN3CCCCC23)cc1` (stereo unspecified), for which the TGI in the assay on 786-0 renal was 35.6 µM; with A498 renal, 26.2 µM; with CAKI-1 renal it was 59.6 µM; in the assay with HOP-92 NSCLC, 27.9 µM; with HS 578T breast it was 31.1 µM; with K-562 leukemia, 28 µM. Moreover, the TGI with M14 melanoma was found to be 25.6 µM; with MOLT-4 leukemia, 28.7 µM; in the assay on NCI-H226 lung, 32.3 µM; with NCI-H460 lung it was 29.2 µM; in the assay on NCI/ADR-RES ovarian, 27.1 µM; with SF-268 CNS, 28.6 µM. For the same compound, the TGI was 28.2 µM with SK-MEL-28 melanoma; 27.5 µM in the assay on SK-MEL-5 melanoma; 33.7 µM in the assay on SK-OV-3 ovarian; 28.8 µM in the assay with SNB-75 CNS; 30.7 µM in the assay on U251 CNS; 26.7 µM in the assay with UACC-257 melanoma.

With `COc1cc2cc(C(=O)N3CC(CCl)c4c3cc(O)c3ccccc43)[nH]c2c(OC)c1OC` (stereo unspecified), the TGI in the assay on 786-0 renal is 0.506 µM; with A498 renal it was 0.82 µM; with BT-549 breast, 9.94 µM; in the assay on HS 578T breast it was less than 0.005 µM; in the assay with K-562 leukemia it was more than 50 µM; in the assay on M14 melanoma, less than 0.005 µM. Further, the TGI in the assay on MOLT-4 leukemia was 0.153 µM; in the assay with NCI-H460 lung, less than 0.005 µM; in the assay on NCI/ADR-RES ovarian it was more than 50 µM; with SF-268 CNS, 10.8 µM; in the assay on SK-MEL-5 melanoma, 0.00656 µM; in the assay on SK-OV-3 ovarian, 0.996 µM. Also, the TGI is less than 0.005 µM with SNB-75 CNS and 24.6 µM in the assay with U251 CNS.

Turning to `N=C(N)SCc1ccc(N=C=S)cc1`, the TGI in the assay with 786-0 renal was 26.7 µM; with A498 renal, 26.9 µM; with CAKI-1 renal it was 25.4 µM; in the assay with COLO 205 colon, 28.2 µM; in the assay on HOP-92 NSCLC, 24.2 µM; in the assay with HS 578T breast, 42.1 µM. The TGI was 44 µM in the assay with K-562 leukemia; more than 100 µM with MOLT-4 leukemia; 34.6 µM with NCI-H226 lung; 30.4 µM in the assay with NCI-H460 lung; 43 µM with NCI/ADR-RES ovarian; 35.1 µM with SF-268 CNS. Also, the TGI in the assay with SK-MEL-28 melanoma was determined as 28.7 µM; in the assay on SK-MEL-5 melanoma, 27.2 µM; in the assay on SK-OV-3 ovarian, 31.1 µM; in the assay on SNB-75 CNS, 21.9 µM; with U251 CNS, 29 µM; in the assay with UACC-257 melanoma it was 25.8 µM.

Take `COc1ccc(N(C(=O)NCCO)c2ccccc2)cc1`: the TGI in the assay with 786-0 renal, in the assay on A498 renal, in the assay with CAKI-1 renal, with COLO 205 colon, in the assay with HOP-92 NSCLC and in the assay on HS 578T breast was more than 100 µM throughout. Further, the TGI in the assay with K-562 leukemia, in the assay on M14 melanoma, in the assay with MOLT-4 leukemia, in the assay with NCI-H226 lung, in the assay on NCI-H460 lung and in the assay on NCI/ADR-RES ovarian was more than 100 µM each time. Moreover, the TGI in the assay with SF-268 CNS, with SK-MEL-28 melanoma, in the assay on SK-MEL-5 melanoma, in the assay with SK-OV-3 ovarian, in the assay on SNB-75 CNS and with U251 CNS was more than 100 µM in each case. The TGI with UACC-257 melanoma was more than 100 µM.

As for `S=C(c1c[nH]c2ccccc12)N1CCCCC1`, the TGI in the assay with 786-0 renal, with A498 renal, in the assay with BT-549 breast, with CAKI-1 renal, in the assay on COLO 205 colon and in the assay on HS 578T breast was more than 100 µM throughout. The TGI with K-562 leukemia, in the assay on M14 melanoma, with MOLT-4 leukemia, in the assay on NCI-H226 lung, in the assay with NCI-H460 lung and with NCI/ADR-RES ovarian was more than 100 µM throughout. The TGI with SF-268 CNS, in the assay with SK-MEL-28 melanoma, in the assay with SK-MEL-5 melanoma, in the assay with SK-OV-3 ovarian, in the assay on U251 CNS and in the assay with UACC-257 melanoma was more than 100 µM in each case.

Take `COC(=O)C1=COc2c(n(C)c3ccccc23)-c2ccccc21`: the TGI in the assay with 786-0 renal, in the assay with A498 renal, in the assay on BT-549 breast, with CAKI-1 renal, with COLO 205 colon and in the assay on HS 578T breast was more than 100 µM each time. The TGI in the assay with K-562 leukemia, with M14 melanoma, in the assay on MOLT-4 leukemia, in the assay with NCI-H226 lung, in the assay with NCI-H460 lung and with NCI/ADR-RES ovarian was more than 100 µM each time. Moreover, the TGI with SF-268 CNS, with SK-MEL-5 melanoma, with SK-OV-3 ovarian, with SNB-75 CNS, in the assay with U251 CNS and in the assay with UACC-257 melanoma was more than 100 µM in each case.

Turning to `CC(=O)N(C(C)=O)n1nc2c(n1)C(=O)c1ccccc1C2=O`, the TGI with 786-0 renal, in the assay with A498 renal, with BT-549 breast, in the assay on CAKI-1 renal, in the assay with COLO 205 colon and in the assay on HOP-92 NSCLC was more than 100 µM throughout. Also, the TGI with HS 578T breast, in the assay on M14 melanoma, with MOLT-4 leukemia, with NCI-H460 lung, in the assay on NCI/ADR-RES ovarian and in the assay with SF-268 CNS was more than 100 µM each time. The TGI in the assay with SK-MEL-28 melanoma, with SK-MEL-5 melanoma, in the assay with SK-OV-3 ovarian, in the assay on U251 CNS and in the assay with UACC-257 melanoma was more than 100 µM throughout.
